Assay results as given in the NIST ThermoML archive (doi:10.1016/j.fluid.2005.05.012).
“And” between values parts separate entries of the source, which are not always exact repeats. Identical values can stand only once. ± gives the expanded uncertainty stated by the source.

Columns and labels:
[1] = 101.33 kPa, Liquid
[2] = xn = mol fraction of the nth substance listed; conditions: 101.33 kPa, Liquid, x1 = 1

mass density ([1]; 293.15 K)	viscosity ([1]; 293.15 K)	mass density ([1]; 298.15 K)	viscosity ([1]; 298.15 K)	mass density ([1]; 303.15 K)	viscosity ([1]; 303.15 K)	mass density ([2]; 293.15 K)	viscosity ([2]; 293.15 K)	mass density ([2]; 298.15 K)	viscosity ([2]; 298.15 K)	mass density ([2]; 303.15 K)	viscosity ([2]; 303.15 K)	Structure (SMILES)
801.58 ± 0.57 kg/m3	3.994 ± 0.044 mPa·s	798.09 ± 0.57 kg/m3	3.334 ± 0.037 mPa·s	794.09 ± 0.58 kg/m3	2.794 ± 0.032 mPa·s	–	–	–	–	–	–	CC(C)CO [2-methyl-1-propanol]
809.97 ± 0.55 kg/m3	2.938 ± 0.033 mPa·s	806.15 ± 0.56 kg/m3	2.572 ± 0.029 mPa·s	802.14 ± 0.57 kg/m3	2.271 ± 0.026 mPa·s	–	–	–	–	–	–	CCCCO [butan-1-ol]
789.32 ± 0.59 kg/m3	1.17 ± 0.014 mPa·s	785.06 ± 0.6 kg/m3	1.078 ± 0.013 mPa·s	780.68 ± 0.61 kg/m3	0.982 ± 0.012 mPa·s	–	–	–	–	–	–	CCO [ethanol]
803.79 ± 0.56 kg/m3	2.194 ± 0.025 mPa·s	799.74 ± 0.57 kg/m3	1.945 ± 0.023 mPa·s	795.68 ± 0.58 kg/m3	1.73 ± 0.02 mPa·s	–	–	–	–	–	–	CCCO [propan-1-ol]
–	–	–	–	–	–	803.79 ± 0.56 kg/m3	2.194 ± 0.025 mPa·s	799.74 ± 0.57 kg/m3	1.945 ± 0.023 mPa·s	795.68 ± 0.58 kg/m3	1.73 ± 0.02 mPa·s	CCCO [propan-1-ol] + CN1CCNCC1

Second part, the molecule before the results:

Structure (SMILES)	mass density ([1]; 293.15 K)	viscosity ([1]; 293.15 K)	mass density ([1]; 298.15 K)	viscosity ([1]; 298.15 K)	mass density ([1]; 303.15 K)	viscosity ([1]; 303.15 K)	mass density ([2]; 293.15 K)	viscosity ([2]; 293.15 K)	mass density ([2]; 298.15 K)	viscosity ([2]; 298.15 K)	mass density ([2]; 303.15 K)	viscosity ([2]; 303.15 K)
CN1CCNCC1 [N-methylpiperazine]	903.8 ± 0.36 kg/m3 and 903.79 ± 0.36 kg/m3 and 903.78 ± 0.36 kg/m3	2.1 ± 0.024 mPa·s	899.8 ± 0.37 kg/m3	1.841 ± 0.021 mPa·s	894.52 ± 0.38 kg/m3 and 894.54 ± 0.38 kg/m3 and 894.55 ± 0.38 kg/m3	1.624 ± 0.019 mPa·s	–	–	–	–	–	–
CO [methanol]	791.09 ± 0.59 kg/m3	0.593 ± 0.008 mPa·s	786.48 ± 0.6 kg/m3	0.551 ± 0.008 mPa·s	781.22 ± 0.61 kg/m3	0.509 ± 0.008 mPa·s	–	–	–	–	–	–
CC(C)O [propan-2-ol]	785.84 ± 0.6 kg/m3	2.405 ± 0.028 mPa·s	781.3 ± 0.61 kg/m3	2.062 ± 0.024 mPa·s	777.41 ± 0.61 kg/m3	1.782 ± 0.021 mPa·s	–	–	–	–	–	–
CC(C)O [propan-2-ol] + CN1CCNCC1	–	–	–	–	–	–	785.84 ± 0.6 kg/m3	2.405 ± 0.028 mPa·s	781.3 ± 0.61 kg/m3	2.062 ± 0.024 mPa·s	777.41 ± 0.61 kg/m3	1.782 ± 0.021 mPa·s
